According to US20240209456A1, “METHODS AND COMPOSITIONS RELATED TO CELL-CYCLE RNA's” (BETH ISRAEL DEACONESS MEDICAL CENTER, priority 2021, published 2024):
*1 amine or outer side, *2 acyl side, *3 side chain or, on linkers, in order; H or OH if unused. Where a SMILES comes first, the peptide text is derived from it. Bridges are numbered along the chain shown (N, C = ends). Roman numbers before positions name the chains, in order. [ ]: non-standard residue; d: D form. Actinocin(9to1) = Cc1c2oc3c(C)ccc(C(=O)[*:1])c3nc-2c(C(=O)[*:2])c(N)c1=O; NMeV = CN[C@H](C(=O)O)C(C)C; Sar = CNCC(=O)O

Experiments:
MYB SPEARs = assay: qRT-PCR of MYB SPEARs; type: cell-based, human; conditions: HL-60, DRB and ActD, FIG. 10C
Method: Total RNA isolation was carried out and all RNA samples used in this study were treated with DNase I (10 U of DNase I per 3 μg of total RNA; 37° C. for one hour; in the presence of RNase inhibitor). After DNase I treatment, RNA samples were extracted with acidic phenol (pH 4.3) to eliminate any remaining traces of DNA. cDNA syntheses were performed with Random Primers (Invitrogen) or gene-specific primers with Transcriptor Reverse Transcriptase (Roche Applied Science) according to the manufacturer's recommendation. cDNA was purified with a High Pure PCR Product Purification Kit (Roche Applied Science).
Sybr green reaction was performed using iQ Sybr Green supermix (Biorad, Hercules, CA) using the following parameters: 95° C. (10 min), 40 cycles of 95° C. (15 s) and 60° C. (1 min) 72° C. (1 min). TaqMan analysis was performed using Hotstart Probe One-step qRT-PCR master mix (USB) at the following conditions: 50° C. (10 min.), 95° C. (2 min.), and then 40 cycles of 95° C. (15 sec.) and 60° C. (60 sec.).

acH2A.Z = assay: nascent ChIP-qPCR (nasChIP) with acH2A.Z antibody; type: cell-based, human; conditions: for restoration of acH2A.Z at c-MYC locus after DRB reversal: HL-60, 2 hrs after DRB wash-out, MG149 200 μM, TH1834 500 μM; for restoration of acH2A.Z enrichment at PU1 locus after DRB reversal: HL-60, MG149 and TH1834 treatments
Method: (§1) To confirm the results of the ChIP-Seq, and to track the deposition of the H2A.Z, acH2A.Z nascent chromatin immunoprecipitation (nasChIP-PCR) was performed with the antibodies to H2A.Z, acH2A.Z and TIP60, as nasChIP-PCR can be used to track histone deposition. Cells were synchronized with a double thymidine block, released into S Phase and treated with DRB for 2 hrs. The medium was supplemented with the EdU DNA analog to enable collection of nascent chromatin DNA (FIG. 4A). […] The results of these experiments provide an important link between the suppressed c-MYC SPEARs expression and the reduced levels of the replacement histone H2A.Z, as an even greater degree of the loss of the acetylated acH2A.Z forms at the TSS of the c-MYC locus. Similar results were obtained for another gene locus, PU1 (FIG. 4F, right panels).
(§2) Cells were synchronized with a double thymidine block and released into S Phase with DMSO/DRB added. After 2 hours (during which H2A.Z levels remained unaffected, but SPEARs and mRNA levels drop, see FIG. 10A), cells were washed and then incubated for a further 2 hours with or without the TIP60 inhibitors. This interval is sufficient for the levels of both the c-MYC mRNAs and its SPEARs to be restored when the TIP60 inhibitors are absent (results shown in FIG. 11B). The medium was supplemented with the EU RNA and EdU DNA analogs to enable collection of nascent RNAs and newly formed chromatin that had escaped the drug-induced inhibition of transcription or acetylation. After 2 hours with the TIP60 inhibitors present (MG-149 at 200 μM and TH1834 at 500 μM), during which the levels of acH2A.Z dropped (see FIG. 11A), cells were crosslinked and subjected to nasChIP and nascent RNA expression analyses (nas-qRT-PCR) (FIG. 6B). Collected RNAs were biotinylated by click chemistry, isolated on streptavidin beads and analyzed by nas-qRT-PCR (see “Methods” below for details; FIG. 8A; bottom panel).
(§3) To further confirm that SPEARs realize their c-MYC regulatory function directly through the TIP60/acH2A.Z pathway, the differences in chromatin occupancy of H2A.Z, acH2A.Z and TIP60 were assessed after inhibition of transcription (“DRB”), reversal of inhibition (“DRB REV”) and reversal of inhibition in the presence of the two TIP60 inhibitors, using nasChIP-qPCR. […] By analyzing the nascent RNAs and chromatin, only the immediate changes in c-MYC expression and TIP60, acH2A.Z and H2A.Z occupancy were examined within the locus as imposed by the inhibition of transcription and/or acetylation. […] When the two HAT inhibitors are present, the reversal of transcriptional inhibition can only restore the enrichment levels of the unmodified H2A.Z and TIP60 (FIG. 6D; left and right panels), but not the levels of acH2A.Z (middle panel). […] Furthermore, no enrichments of H2A.Z, acH2A.Z or TIP60 was detected within the Gene Desert locus (FIG. 11C). […] Similar results were obtained for the PU.1 locus (FIG. 11D and FIG. 11E). These findings using nasChIP are in line with the general trend obtained globally by ChIP-Seq. (FIG. 4C).
(§4) Nascent RNA/DNA capture was performed using Click-iT Nascent RNA Capture Kit (ThermoFisher) according to the manufacturer's instructions with minor modifications. Briefly, 1. Labeling the cells with EU/EdU. 200 mM EU or 30 mM EdU stock solutions were added to the cells, to a final concentration 0.5 mM or 30 μM, respectively. 2. Incubation. The cells were incubated for 1 or 2 hours. 3. RNA/DNA isolation. The cells were harvested and the RNA/DNA were isolated and dissolved in 14 μL of H2O. 4. Biotinylation of RNA/DNA by Click reaction. Click-iT reaction cocktail (50 μL per reaction) was prepared accordingly to manufacturer's instructions: a mixture containing 1× Click-iT EU buffer; 2 mM CuSO4; 1 mM Biotin azide; 13.25 μL of the isolated RNA; 10 mM Click-iT reaction buffer additive 1; 12 mM Click-iT reaction buffer additive 2 was prepared. After adding each component, the reaction cocktail was gently mixed by vortexing. […]

TIP60 = TIP60 (Homo sapiens, UniProt Q92993); assay: nascent ChIP-qPCR (nasChIP) with TIP60 antibody; type: cell-based; parameters: endogenous in cells; host or cells: HL-60; conditions: for restoration of TIP60 at c-MYC locus after DRB reversal: HL-60, 2 hrs after DRB wash-out, MG149 200 μM, TH1834 500 μM; for restoration of TIP60 enrichment at PU1 locus after DRB reversal: HL-60, MG149 and TH1834 treatments
Method: as §1, §2, §3, §4

[1] = HL-60 released into S Phase, DRB 2 hrs

Chain of TIP60 (Q92993 whole entry): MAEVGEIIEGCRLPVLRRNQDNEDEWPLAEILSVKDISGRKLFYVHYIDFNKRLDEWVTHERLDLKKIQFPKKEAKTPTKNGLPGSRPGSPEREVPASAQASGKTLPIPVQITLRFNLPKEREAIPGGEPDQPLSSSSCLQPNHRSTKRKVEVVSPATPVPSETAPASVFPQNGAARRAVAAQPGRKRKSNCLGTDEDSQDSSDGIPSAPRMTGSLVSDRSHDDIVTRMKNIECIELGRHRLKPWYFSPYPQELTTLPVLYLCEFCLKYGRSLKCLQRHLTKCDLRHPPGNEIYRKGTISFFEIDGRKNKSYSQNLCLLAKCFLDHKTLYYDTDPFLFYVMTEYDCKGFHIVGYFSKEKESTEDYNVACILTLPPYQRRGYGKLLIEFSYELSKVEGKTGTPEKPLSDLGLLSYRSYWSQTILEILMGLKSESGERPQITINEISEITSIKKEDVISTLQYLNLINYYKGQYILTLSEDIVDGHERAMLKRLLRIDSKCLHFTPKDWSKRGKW

Row | SMILES | MYB SPEARs level upon transcription inhibitors (MYB SPEARs) | restoration of acH2A.Z at c-MYC locus after DRB reversal (acH2A.Z) | restoration of acH2A.Z enrichment at PU1 locus after DRB reversal (acH2A.Z) | restoration of TIP60 at c-MYC locus after DRB reversal (TIP60) | restoration of TIP60 enrichment at PU1 locus after DRB reversal (TIP60) | acH2A.Z enrichment at PU1 locus (acH2A.Z; HL-60, DRB treatment) | acH2A.Z enrichment at c-MYC locus (acH2A.Z; [1]) | TIP60 enrichment at PU1 locus (TIP60; HL-60, DRB treatment) | TIP60 enrichment at c-MYC locus (TIP60; [1])
1 | Cc1c2oc3c(C)ccc(C(=O)N[C@@H]4C(=O)N[C@H](C(C)C)C(=O)N5CCC[C@H]5C(=O)N(C)CC(=O)N(C)[C@@H](C(C)C)C(=O)O[C@@H]4C)c3nc-2c(C(=O)N[C@@H]2C(=O)N[C@H](C(C)C)C(=O)N3CCC[C@H]3C(=O)N(C)CC(=O)N(C)[C@@H](C(C)C)C(=O)O[C@@H]2C)c(N)c1=O [ActD, Actinomycin D] (I: T[dV]P[Sar][NMeV] / II: T[dV]P[Sar][NMeV]; ester I:1-I:C, II:1-II:C; linker I:N-II:N via Actinocin(9to1)) | positively affected |  |  |  |  |  |  |  | 
2 | O=C(O)Cn1nnc(-c2ccc(CN(CCCCOc3ccc(CN4CCCC4)cc3)CCc3ccccc3)cc2)n1 [TH1834] |  | prevents the restoration | preventing the restoration | only slightly affecting | without affecting |  |  |  | 
3 | OC[C@H]1O[C@@H](n2cnc3cc(Cl)c(Cl)cc32)[C@H](O)[C@@H]1O [DRB, 5,6-Dichlorobenzimidazole 1-β-D-ribofuranoside] | positively affected |  |  |  |  | loss | diminished enrichment and loss | loss | diminished enrichment and loss
4 | CCCCCCCc1ccc(CCc2cccc(O)c2C(=O)O)cc1 [MG149] |  | prevents the restoration | preventing the restoration | only slightly affecting | without affecting |  |  |  | 
